This is an account of results in ChEMBL document CHEMBL1156798, “Structural conservation in band 4.1, ezrin, radixin, moesin (FERM) domains as a guide to identify inhibitors of the proline-rich tyrosine kinase 2” (J Med Chem, 2010).

SMILES strings stand for the structures. Active and inactive are the calls of the source.

The target in the first assay is Protein-tyrosine kinase 2-beta (Homo sapiens) (UniProt Q14289). The experiment in a line: Binding affinity to human Pyk2 FERM domain by LC/MS depletion assay.
Sequence of Protein-tyrosine kinase 2-beta (Homo sapiens) (Q14289 whole entry, looked up, the tested form may be a part): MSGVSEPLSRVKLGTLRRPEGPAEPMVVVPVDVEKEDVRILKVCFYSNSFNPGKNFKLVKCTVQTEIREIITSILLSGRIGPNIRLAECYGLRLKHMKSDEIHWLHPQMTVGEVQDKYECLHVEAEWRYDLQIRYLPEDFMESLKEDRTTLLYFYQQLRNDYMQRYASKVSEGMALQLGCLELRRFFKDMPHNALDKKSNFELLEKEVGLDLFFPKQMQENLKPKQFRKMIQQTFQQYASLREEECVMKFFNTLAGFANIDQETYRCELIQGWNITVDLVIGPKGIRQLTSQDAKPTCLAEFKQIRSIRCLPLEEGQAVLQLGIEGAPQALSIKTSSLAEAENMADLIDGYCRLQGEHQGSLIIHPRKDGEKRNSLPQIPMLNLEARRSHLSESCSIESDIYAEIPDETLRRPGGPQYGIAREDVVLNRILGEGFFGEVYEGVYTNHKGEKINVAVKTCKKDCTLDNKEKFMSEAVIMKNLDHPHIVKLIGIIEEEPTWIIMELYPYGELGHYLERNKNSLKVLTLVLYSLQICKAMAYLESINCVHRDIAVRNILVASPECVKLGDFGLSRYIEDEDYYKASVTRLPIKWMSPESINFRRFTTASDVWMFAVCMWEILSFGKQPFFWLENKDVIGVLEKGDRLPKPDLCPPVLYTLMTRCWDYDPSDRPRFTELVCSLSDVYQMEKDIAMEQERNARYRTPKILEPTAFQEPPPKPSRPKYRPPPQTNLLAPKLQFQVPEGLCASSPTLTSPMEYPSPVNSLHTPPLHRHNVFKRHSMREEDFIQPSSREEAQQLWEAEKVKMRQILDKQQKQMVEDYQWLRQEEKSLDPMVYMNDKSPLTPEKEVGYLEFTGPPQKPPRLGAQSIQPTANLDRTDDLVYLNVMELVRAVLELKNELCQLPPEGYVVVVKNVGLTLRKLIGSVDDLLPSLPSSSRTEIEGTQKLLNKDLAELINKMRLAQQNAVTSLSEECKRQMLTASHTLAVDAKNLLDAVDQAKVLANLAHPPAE
Conditions: not given
As for `C=CCOC(=O)NCCSc1nc2ccc(NC(=O)c3csnn3)cc2s1`, the outcome was Active.

The next assay has the same target. The experiment in a line: Inhibition of HA-epitope-tagged Pyk2 FERM domain expressed in HEK293 cells assessed as inhibition of binding to 12A10 antibody by ELISA. In kind it is cell-based. Set-up: inhibition: concentration or dose not given beside the values.
Conditions: not given
In the case of `O=C(NNC(=O)[C@H]1CCCNC1=O)c1csc(C2CCN(C(=O)NCCC3=CCCCC3)CC2)n1`, the result was inactive.
Consider `CCOC(=O)NNC(=O)c1csc(C2CCN(C(=O)Cc3c[nH]c4ccccc34)CC2)n1`, for which the result was inactive.
The same measure, in the same setting: with `C=CCOC(=O)NCCSc1nc2ccc(NC(=O)c3ccccc3S(C)(=O)=O)cc2s1` the entry was “inactive”.
Still for that read-out and setting: the value for `C=CCOC(=O)NCCSc1nc2ccc(NC(=O)C3CCN(C(=O)c4ccccc4)CC3)cc2s1` was “inactive”; that for `CCOc1ccccc1CNC(=O)c1ccc(C)nc1C1CCN(C(=O)/C=C/c2cccc(O)c2)CC1` was “inactive”.
On the same count and under the same terms, with `C=CCOC(=O)NCCSc1nc2ccc(NC(=O)CS(=O)(=O)c3ccc(C)cc3)cc2s1` the entry was “inactive”; with `CC(=O)Nc1ccc(S(=O)(=O)NNC(=O)Nc2c(C(C)C)cccc2C(C)C)cc1Cl`, “inactive”.
As for `CC(C)(C)c1cc(O)nc(SCC(=O)N2CCCN(CC(=O)Nc3ccccc3C(C)(C)C)CC2)n1`, the outcome was inactive.
The same measure, in the same setting: with `COc1ccc(C(N)=O)cc1NC(=O)c1csc(C2CCN(C(=O)c3cc4ccccc4o3)CC2)n1` the entry was “inactive”; with `O=C(NNC(=O)c1n[nH]c2ccccc12)c1csc(C2CCN(C(=O)NCCC3=CCCCC3)CC2)n1`, “inactive”; with `COc1ccc(OC)c(NC(=S)NCC(=O)N[C@@H](CC(C)C)C(N)=O)c1`, “inactive”.
Same read-out and setting: with `O=C(Nc1ccccc1N1CCOCC1)c1csc(C2CCN(C(=O)NCCC3=CCCCC3)CC2)n1` the entry was “inactive”; with `C=CCOC(=O)NCCSc1nc2ccc(NC(=O)CCn3c(=O)oc4ccccc43)cc2s1`, “inactive”.
With `COc1ccccc1NC(=O)N1CCC2(CC1)CCN(S(=O)(=O)c1sc(NC(C)=O)nc1C)C2`, the result was inactive.
The same measure, in the same setting: the value for `Cc1nc(C)c(C(=O)NNC(=O)c2csc(C3CCN(C(=O)Cc4c[nH]c5ccccc45)CC3)n2)s1` was “inactive”; that for `C=CCOC(=O)NCCSc1nc2ccc(NC(=O)c3cccc(C#N)c3)cc2s1` was “inactive”.
Same read-out and setting: with `C=CCOC(=O)NCCSc1nc2ccc(NC(=O)[C@H]3CCOC3)cc2s1` the entry was “inactive”.
On the same count and under the same terms, with `C=CCOC(=O)NCCSc1nc2ccc(NC(=O)C3(C#N)CC3)cc2s1` the entry was “inactive”; with `CCCCNS(=O)(=O)c1cccc(NC(=O)CNC(=O)c2ccoc2)c1`, “inactive”.
For `CCOC(=O)c1nc(NC(=O)c2csc(C3CCN(C(=O)NCCC4=CCCCC4)CC3)n2)cn1C`, the result was inactive.
With `CN(C)c1ccc(NC(=S)N2CCC(c3nc(C(=O)NCCOc4ccccc4Cl)cs3)CC2)cc1`, the result was inactive.
Still for that read-out and setting: with `C=CCOC(=O)NCCSc1nc2ccc(NC(=O)c3c([N+](=O)[O-])c(C)nn3C)cc2s1` the entry was “inactive”; with `C=CCOC(=O)NCCSc1nc2ccc(NC(=O)c3ccc([N+](=O)[O-])cc3F)cc2s1`, “inactive”.
For the molecule `O=C(CN1CCCN(C(=O)CNC(=O)c2ccco2)CC1)NCCc1ccccc1`, the result was inactive.
On the same count and under the same terms, with `Cc1ccc(C(=O)NCCc2cccs2)c(C2CCN(C(=O)c3nc4ccccc4nc3O)CC2)n1` the entry was “inactive”; with `C=CCOC(=O)NCCSc1nc2ccc(NC(=O)c3c(C)noc3C)cc2s1`, “inactive”; with `Cc1cc(C)cc(NC(=O)N2CCC3(CCN(C(=O)CCCC[C@@H]4SC[C@@H]5NC(=O)N[C@@H]54)C3)CC2)c1`, “inactive”.
Turning to `C=CCOC(=O)NCCSc1nc2ccc(NC(=O)C(C)(C)n3cncn3)cc2s1`, the result was inactive.
As for `N#Cc1c(Cl)cccc1Oc1ccc(S(=O)(=O)Nc2ccc(S(=O)(=O)Nc3ccccn3)cc2)cc1`, the outcome was inactive.
For the molecule `COc1ccc(C(N)=O)cc1NC(=O)c1csc(C2CCN(C(=O)C#Cc3ccccc3)CC2)n1`, the outcome was inactive.
As for `CN(C)c1ccc(NC(=S)N2CCC(c3nc(C(=O)NC[C@@H]4COc5ccccc5O4)cs3)CC2)cc1`, the result was inactive.
The same measure, in the same setting: the value for `O=C(COc1ccccc1)NNC(=O)c1csc(C2CCN(C(=O)NCCC3=CCCCC3)CC2)n1` was “inactive”.
On the same count and under the same terms, with `Cc1cc(NS(=O)(=O)c2ccc3c(c2)CN(C(=O)C(F)(F)F)CC3)nc(C)n1` the entry was “inactive”; with `C#CC[C@H](NC(C)=O)C(=O)Nc1ccc2nc(SCCNC(=O)OCC=C)sc2c1`, “inactive”.
Same read-out and setting: the value for `Cc1cccc(C)c1NC(=O)CN1CCCN(C(=O)CNC(=O)c2ccco2)CC1` was “inactive”.
Regarding `C=CCOC(=O)NCCSc1nc2ccc(NC(=O)[C@H]3CCCN3C(=O)c3cccs3)cc2s1`, the outcome was inactive.
Same read-out and setting: the value for `C=CCOC(=O)NCCSc1nc2ccc(NC(=O)CNC(=O)OC)cc2s1` was “inactive”; that for `COc1ccc(C(N)=O)cc1NC(=O)c1csc(C2CCN(C(=O)c3cnn(-c4ccccc4)c3C)CC2)n1` was “inactive”.
Regarding `COc1ccc(C(N)=O)cc1NC(=O)c1csc(C2CCN(C(=O)c3cc(OC)c4ccccc4n3)CC2)n1`, the result was inactive.
Still for that read-out and setting: with `C=CCOC(=O)NCCSc1nc2ccc(NC(=O)Cc3ccc([N+](=O)[O-])cc3)cc2s1` the entry was “inactive”; with `CCCOCCNC(=O)c1ccc(C)nc1C1CCN(C(=O)c2cc(NC(C)=O)ccc2O)CC1`, “inactive”; with `C=CCOC(=O)NCCSc1nc2ccc(NC(=O)c3cc(C)n(C)n3)cc2s1`, “inactive”.
The same measure, in the same setting: the value for `COc1ccc(C(=O)CCC(=O)N2CCC(c3nc(C(=O)Nc4cc(C(N)=O)ccc4OC)cs3)CC2)cc1` was “inactive”; that for `C=CCOC(=O)NCCSc1nc2ccc(NC(=O)Cc3nc(C)sc3C)cc2s1` was “inactive”; that for `CC(=O)Nc1ccc(O)c(C(=O)N2CCC(c3nc(C)ccc3C(=O)NCCc3cccs3)CC2)c1` was “inactive”.
As to `C=CCOC(=O)NCCSc1nc2ccc(NC(=O)/C=C/c3ccc([N+](=O)[O-])o3)cc2s1`, the outcome was inactive.
In the case of `COC(=O)c1ccc(NS(=O)(=O)c2ccc(NC(C)=O)c(Cl)c2)cc1OC`, the outcome was inactive.
Still for that read-out and setting: the value for `Cc1ccc(C(=O)NCCCn2ccnc2)c(C2CCN(C(=O)/C=C/c3cccc(O)c3)CC2)n1` was “inactive”; that for `CN(C)c1ccc(NC(=S)N2CCC(c3nc(C(=O)NC[C@H](c4ccc[nH]4)C(F)(F)F)cs3)CC2)cc1` was “inactive”; that for `O=C(NCC(=O)N1CCC2(CC1)CCN(C(=S)NC[C@@H]1CCCO1)C2)c1ccco1` was “inactive”.
On the same count and under the same terms, with `O=C(CN1CCCN(C(=O)CNC(=O)C(F)(F)F)CC1)Nc1ccc(F)cc1F` the entry was “inactive”; with `Cc1ccc(C(=O)NCCc2c[nH]c3ccccc23)c(C2CCN(C(=O)c3ccc(NC(N)=S)cc3)CC2)n1`, “inactive”; with `Cc1ccc(C(=O)Nc2nnc(C(C)(C)C)s2)c(C2CCN(C(=O)c3nc4ccccc4nc3O)CC2)n1`, “inactive”.
Take `CC(=O)Nc1cccc(OCCCNC(=O)c2csc(C3CCN(C(=O)C4CCCCC4)CC3)n2)c1`: the result was inactive.
The same measure, in the same setting: with `CN(C)c1ccc(NC(=S)N2CCC(c3nc(C(=O)NCCc4c[nH]c5ccc(F)cc45)cs3)CC2)cc1` the entry was “inactive”.
The same measure, in the same setting: with `O=C(N1CCc2ccc(S(=O)(=O)Nc3ccc(Cl)nn3)cc2C1)C(F)(F)F` the entry was “inactive”; with `C=CCOC(=O)NCCSc1nc2ccc(NC(=O)c3coc4c3C(=O)CCC4)cc2s1`, “inactive”.
Regarding `C=CCOC(=O)NCCSc1nc2ccc(NC(=O)c3cc(NC(C)=O)cc(NC(C)=O)c3)cc2s1`, the result was inactive.

The assay is the same for the next values; noted with them: concentration not given here.
For `Cc1ccc(C(=O)NCCc2cc3ccccc3[nH]2)c(C2CCN(C(=O)CNC(=O)Nc3ccccc3)CC2)n1`, the inhibition is 6%.
Turning to `COc1ccc(NC(C)=O)cc1NS(=O)(=O)c1ccc(NC(C)=O)cc1`, the inhibition turned out to be 18%.
Same read-out and setting: the value for `C=CCOC(=O)NCCSc1nc2ccc(NC(=O)CSc3nc(C)cc(C)n3)cc2s1` was 19%.
`C=CCOC(=O)NCCSc1nc2ccc(NC(=O)CSc3ccccn3)cc2s1`: the inhibition is 22%.
Still for that read-out and setting: the value for `C=CCOC(=O)NCCSc1nc2ccc(NC(=O)[C@H]3CC(=O)c4ccccc43)cc2s1` was 11%.
On the same count and under the same terms, with `C=CCOC(=O)NCCSc1nc2ccc(NC(=O)c3csnn3)cc2s1` the figure was 33%; with `O=C(NCC(=O)N1CCC2(CC1)CCN(C(=O)Cc1n[nH]c(=O)c3ccccc13)C2)c1ccco1`, 18%; with `CC(=O)Nc1ccc(S(=O)(=O)NNC(=O)Nc2ccccc2-c2ccccc2)cc1Cl`, 24%.

The target is the same in a further assay. The experiment in a line: Inhibition of Pyk2-mediated stimulation of human SF767 glioma cell migration at 5 uM by radial migration assay relative to control.
Conditions: not given
With `C=CCOC(=O)NCCSc1nc2ccc(NC(=O)c3csnn3)cc2s1`, the inhibition came to 50%.

A further assay has the same target. The experiment in a line: Inhibition of Pyk2-mediated stimulation of human SF767 glioma cell migration at 50 uM by radial migration assay relative to control.
Conditions: not given
`C=CCOC(=O)NCCSc1nc2ccc(NC(=O)c3csnn3)cc2s1` displayed an inhibition of 85%.
